Experimental data taken from the supplement of paper PMC13380429.

Columns and labels:
Details in all cases: 72 h
[1] = test system: Caco-2; assay: cell viability relative to DMSO; higher = less toxic
[2] = test system: Calu-3; assay: as above
[3] = test system: HepG2; assay: as above
[4] = test system: U2OS; assay: as above
[5] = test system: Vero E6; assay: as above
[6] = test system: Caco-2; assay: relative viability EC50 (midpoint between 100% and the lowest measured viability); higher = less toxic
[7] = test system: HepG2; assay: as above
[8] = test system: U2OS; assay: as above
[9] = test system: Vero E6; assay: as above
[10] = test system: Caco-2; assay: drug sensitivity score (DSS) for viability; higher = more toxic; extreme values may be limits of the assay
[11] = test system: Calu-3; assay: as above
[12] = test system: HepG2; assay: as above
[13] = test system: U2OS; assay: as above
[14] = test system: Vero E6; assay: as above
[15] = test system: Calu-3; assay: relative viability EC50 (midpoint between 100% and the lowest measured viability); higher = less toxic

Compound | cell viability ([1]; 1 nM) [%] | cell viability ([1]; 10 nM) [%] | cell viability ([1]; 100 nM) [%] | cell viability ([1]; 1000 nM) [%] | cell viability ([1]; 10000 nM) [%] | cell viability ([2]; 1 nM) [%] | cell viability ([2]; 10 nM) [%] | cell viability ([2]; 100 nM) [%] | cell viability ([2]; 1000 nM) [%] | cell viability ([2]; 10000 nM) [%] | cell viability ([3]; 1 nM) [%] | cell viability ([3]; 10 nM) [%] | cell viability ([3]; 100 nM) [%] | cell viability ([3]; 1000 nM) [%] | cell viability ([3]; 10000 nM) [%] | cell viability ([4]; 1 nM) [%] | cell viability ([4]; 10 nM) [%] | cell viability ([4]; 100 nM) [%] | cell viability ([4]; 1000 nM) [%] | cell viability ([4]; 10000 nM) [%] | cell viability ([5]; 1 nM) [%] | cell viability ([5]; 10 nM) [%] | cell viability ([5]; 100 nM) [%] | cell viability ([5]; 1000 nM) [%] | cell viability ([5]; 10000 nM) [%] | relative viability EC50 [6] [nM] | relative viability EC50 [7] [nM] | relative viability EC50 [8] [nM] | relative viability EC50 [9] [nM] | drug sensitivity score [10] | drug sensitivity score [11] | drug sensitivity score [12] | drug sensitivity score [13] | drug sensitivity score [14] | relative viability EC50 [15] [nM]
O=C(Nc1nc2ccc(NC(=O)C34CC5CC(CC(C5)C3)C4)cc2s1)c1ccccc1 [NVP-231] | 95.6 | 89.2 | 106 | 86.3 | 43.5 | 100 | 96.1 | 91.8 | 93.1 | 50.3 | 83.9 | 98.2 | 91.6 | 74.1 | 35.4 | 100 | 93.8 | 99.3 | 91.9 | 49.6 | 101 | 96.1 | 90.3 | 93.9 | 38.4 | 1580 | 1240 | 1930 | 2340 | 5.2 | 3.8 | 6.4 | 4 | 4.4 | –
CCCCCCCCCCCC(=O)N(CCO)CCO [lauric-diethanolamide] | 107 | 90.1 | 98.7 | 92.7 | 101 | – | – | – | – | – | 94 | 99.1 | 93.5 | 96.8 | 90.1 | 99.4 | 95.9 | 101 | 98.5 | 102 | 104 | 101 | 103 | 102 | 97.3 | > 10000 | > 10000 | > 10000 | > 10000 | 0 | – | 0 | 0 | 0 | –
CN(C)CCOC(c1ccc(Cl)cc1)c1ccccn1 (stereo unspecified) [carbinoxamine] | 110 | 98.7 | 97.2 | 99.5 | 95.3 | 108 | 110 | 101 | 97.4 | 103 | 99.9 | 95.8 | 102 | 104 | 99.6 | – | – | – | – | – | 94.5 | 102 | 99.4 | 106 | 106 | > 10000 | > 10000 | – | > 10000 | 0 | 0 | 0 | – | 0 | > 10000
O=C(NCCCCCCNC(=O)ON=C1CCCCC1)ON=C1CCCCC1 | 105 | 98.1 | 98.3 | 103 | 102 | 98.4 | 95.9 | 108 | 98.8 | 99.6 | 99.2 | 104 | 100 | 94.6 | 93.9 | – | – | – | – | – | 98.8 | 103 | 99.5 | 100 | 105 | > 10000 | > 10000 | – | > 10000 | 0 | 0 | 0 | – | 0 | > 10000
NS(=O)(=O)c1ccc(-n2nc(C(F)(F)F)cc2-c2ccc(Cl)cc2)cc1 [SC-236] | 102 | 92 | 86.3 | 96.6 | 82.8 | – | – | – | – | – | 111 | 99.5 | 101 | 101 | 103 | 99.1 | 96 | 98.1 | 102 | 103 | 94.7 | 93.3 | 91.6 | 91.6 | 100 | > 10000 | > 10000 | > 10000 | > 10000 | 0.7 | – | 0 | 0 | 0 | –
NC(=O)Nc1sc(-c2ccc(F)cc2)cc1C(N)=O [TPCA-1] | 95.6 | 99.4 | 94.2 | 76.6 | 25.8 | 98.1 | 104 | 97.7 | 96.4 | 75.9 | 99.5 | 95.8 | 94.2 | 80.6 | 49.8 | 100 | 104 | 95.9 | 94.6 | 45.3 | 104 | 98.3 | 101 | 98.2 | 52 | 1440 | 1300 | 2350 | – | 7.2 | 1.4 | 4.7 | 3.8 | 2.7 | > 10000
CC[C@H](C)[C@H](NC(=O)[C@H](Cc1ccc(O)cc1)NC(=O)[C@@H](NC(=O)[C@H](CCCNC(=N)N)NC(=O)[C@@H](N)CC(=O)O)C(C)C)C(=O)N[C@@H](Cc1c[nH]cn1)C(=O)N1CCC[C@H]1C(=O)O [TXA127] | 104 | 110 | 98.2 | 99.4 | 89.4 | 95.2 | 90.6 | 97.9 | 89.2 | 105 | 96.2 | 105 | 89.3 | 104 | 92.4 | 98.9 | 98.7 | 99.1 | 93.3 | 96.9 | – | – | – | – | – | > 10000 | > 10000 | > 10000 | – | 0 | 0 | 0 | 0 | – | > 10000
CCOc1cc2ncc(C#N)c(Nc3ccc(OCc4cccc(F)c4)c(Cl)c3)c2cc1NC(=O)/C=C/CN(C)C [HKI-357] | 94.4 | 95.3 | 88.1 | 77.9 | 6 | 101 | 81 | 51.5 | 94.1 | 32.9 | 97 | 93.6 | 102 | 90.9 | 0.3 | – | – | – | – | – | 99.7 | 106 | 92.6 | 65.3 | 0.2 | 1630 | 2410 | – | 1370 | 8.6 | 10.7 | 7 | – | 9.8 | 373
